Like-named read-outs stand apart in the source and are kept apart here.
Legend:
Type in all cases: cell-based, human
HeLa cells [1] = assay: Flow cytometry of cellular uptake of fluorescently labeled polymer–peptide conjugates (median fluorescence intensity relative to control polymer REF); conditions: for uptake relative to control polymer at the highest concentration: highest concentration used; for cell penetration compared with control polymer (in words): any of the concentrations used, at 4 °C and at 37 °C; for internalization efficiency compared with the control polymer: HeLa cells, flow cytometry, concentration and temperature not stated at this place (abstract)
Experimental: The HeLa cell line (LGC Standards, Poland) was cultured in Dulbecco’s modified Eagle medium (DMEM) supplemented with 100 U of penicillin, 100 μg⋅mL^−1 streptomycin, and 10% fetal bovine serum in 25 cm^2 flasks. Cells were cultivated in a humidified incubator at 37 °C with 5% CO2. The chemicals were purchased from Life Technologies/Gibco, Prague, Czech Republic.
The HeLa cell line was incubated with fluorescently labeled polymer–peptide conjugates for 1 h at 4 °C and 37 °C. For measurement at 4 °C, HeLa cells were harvested with 0.05% trypsin (Thermo Fisher Scientific, Czech Republic) at 37 °C for 3 min. Subsequently, cells were washed with 0.5% bovine serum albumin in phosphate buffered saline (0.01 M) (BSA/PBS), pre-cooled for 15 min and incubated with fluorescently labeled polymer–peptide conjugates in the dark for 1 h at 4 °C. After incubation, the cells were washed once with BSA/PBS, centrifuged at 1500 rpm for 3 min and re-suspended in 1 μM Sytox Blue Dead Cell Stain (Thermo Fisher Scientific, Czech Republic) to distinguish live and dead cells. For measurement at 37 °C, HeLa cells were seeded 24 h prior to the experiment on 24-well plates at a density 1.5 × 10^5 cells per well. Polymer–peptide conjugates were then added together with fresh DMEM and incubated at 37 °C in 5% CO2 and humidified atmosphere. Subsequently, cells were washed with BSA/PBS, harvested with 0.05% trypsin at 37 °C for 3 min, transferred to tubes, centrifuged at 1500 rpm for 3 min, and re-suspended in PBS/BSA containing 1 μM Sytox Blue Dead Cell Stain (Thermo Fisher Scientific, Czech Republic). All measurements were acquired using a FACSVerse™ flow cytometer (Becton Dickinson Czechia, s.r.o., Prague, Czech Republic) and analyzed by FlowJo software version 10 (Tree Star Inc., Ashland, OR, USA); the median of fluorescence intensity was determined. The concentration of polymer conjugates was adjusted to the value corresponding to a final concentration of peptide 1000 μM. This stock solution was diluted with PBS to obtain all used concentrations. […] HeLa cells without a polymer were used as a negative control. All samples were measured in duplicates in two independent experiments.
The uptake of the polymer–peptide conjugates incubated with the cells was measured using flow cytometry.

HeLa cells [2] = assay: Laser scanning confocal microscopy of intracellular uptake and localization
Experimental: Laser scanning confocal microscopy (LSCM) was used to visualize the intracellular uptake of selected polymer conjugates. HeLa cells were seeded 24 h prior to an experiment (1.5 × 10^5 cells per well) to confocal chambers (1 μ-dishes providing a 35 mm^2 growth area with 500 μL cell culture medium) with four chambers in a 20 mm micro-well and a #1 cover glass (0.13–0.16 mm) (Bio-Port Europe, Prague, Czech Republic). Medium was replaced by fresh medium with dissolved polymer–peptide conjugates and added to confocal chamber and incubated either at 4 °C or at 37 °C for 1 h. After the incubation time, cells were washed twice with PBS and measured by confocal microscopy. Hoechst 33342 was used for visualization of cell nuclei (5 μg·mL^−1, Thermo Fischer Scientific, Czech Republic) and cell membranes were stained with CellMask™ Green (1 μg⋅mL^−1, Thermo Fisher Scientific, Czech Republic) for 1 h before imaging at 4 °C or 10 min at 37 °C. Observation of samples was performed by Olympus IX83 coupled with FV10-ASW software (Olympus, Prague, Czech Republic). The samples were scanned using the 60× oil objective Plan ApoN (1.42 numerical apertures). Dy633-labeled polymers were excited at 637 nm and emitted light was detected through a 650–750 nm filter. For the detection of Hoechst 33342 dye-stained nuclei, an excitation wavelength of 405 nm was used and emitted light was detected through a 420–500 nm filter. CellMask Green-stained cell membranes were excited at 488 nm and the emitted light was detected through a 500–600 nm filter. All samples were measured in duplicate in two independent experiments.
A confocal microscopy study was performed to support and extend the data obtained by flow cytometry. Confocal microscopy imaging was used to map localization of CPP conjugates. The polymer conjugates with the highest cell penetration activity, TAT12 and PEN12, were selected for the confocal microscopy experiments. Conjugate REF was used as a control. The polymers were incubated with HeLa cells for 1, 2, or 4 h at 4 or 37 °C.

HeLa cells [3] = assay: Alamar Blue cell viability (cytotoxicity)
Experimental: Cytotoxicity of polymer–peptide conjugates was determined using Alamar Blue® cell viability reagent (Thermo Fischer Scientific, Czech Republic) in HeLa cells according to the manufacturer’s protocol. Cells were seeded into 96-well plates in 100 μL of DMEM 24 h prior to experiment at a density of 5 × 10^3 cells per well. […] […] Then the medium was replaced by 90 μL of fresh medium with 10 μL of Alamar Blue® reagent and incubated for the next 4 h in 5% CO2 at 37 °C. […] The fluorescence intensity was measured using a Synergy Neo plate reader (Bio-Tek, Prague, Czech Republic) with excitation at 550 nm and emission at 590 nm. Non-treated cells were used as a negative control and free pirarubicin as a positive control. All samples were measured in triplicate in three independent experiments. The half maximal inhibitory concentration value IC50 was expressed as a concentration of CPP ± SD and pirarubicin ± SD, respectively. […] In the case of drug bearing polymer conjugates, the concentration varied from 43.2 nM to 44.3 μM of pirarubicin.
Results were plotted as average ± standard deviation (SD). All statistical analysis was performed using GraphPad Prism 5.03. An ANOVA test was followed by Dunnett’s or Turkey’s test. A value of *** p < 0.001, ** p < 0.01, and * p < 0.05 was considered statistically significant. All IC50 (the concentrations of the CPP or drug reducing the cell viability to one half) values were obtained from calculations corresponding to fitting by logistic S-curves.

[4] = 4 °C (cells precooled 15 min), 50 μM of CPP, up to 4 h
[5] = 37 °C, 50 μM of CPP, 1, 2 or 4 h
[6] = 24 h incubation, Alamar Blue, Dy633-labeled conjugates, mean ± SD, triplicate in three independent experiments, for REF virtual CPP concentration of the same weight concentration, read-out: IC50 (concentration of the CPP reducing the cell viability to one half)

PFVYLI [PF4]
increase in uptake relative to REF (HeLa cells [1]; HeLa, 4 °C (precooled cells), 1 h, median fluorescence intensity ratio to REF): up to 2 times | uptake relative to control polymer at the highest concentration (HeLa cells [1]; HeLa, 4 °C, 1 h): 1.8 times | uptake relative to control polymer at the highest concentration (HeLa cells [1]; HeLa, 37 °C, 1 h): 1.8 times

YARAAARQARA [YA4]
cell penetration compared with control polymer (in words) (HeLa cells [1]; HeLa, 1 h): do not penetrate cells better than the control polymer

GRKKRRQRRR [TAT12]
penetration efficacy relative to spacer-free conjugate TAT0 (HeLa cells [1]; HeLa, 4 °C, 1 h, 50 μM of CPP): 2.8 times | cellular localization / internalization by confocal microscopy (in words) (HeLa cells [2]; [4]): partially localized even in the cytosol | cellular localization / internalization by confocal microscopy (in words) (HeLa cells [2]; [5]): localized in cytosol already after 1 h | presence of the polymer in the cell nuclei (in words) (HeLa cells [2]; [5]): negligible

RRMKWKK [PEN12]
penetration efficacy relative to shorter analog PEN4 (HeLa cells [1]; HeLa, 4 °C, 1 h, 25 μM of CPP): two | cellular localization / internalization by confocal microscopy (in words) (HeLa cells [2]; [4]): much less pronounced at 4 °C | cellular localization / internalization by confocal microscopy (in words) (HeLa cells [2]; [5]): lower cell internalization compared with TAT12

GRKKRRQRRR [TAT4]
IC50 (HeLa cells [3]; [6]): 95.3 ± 2.6 µM | internalization efficiency compared with the control polymer (HeLa cells [1]): about 40 times | cell penetration level compared with REF (HeLa cells [1]; HeLa, 4 °C, 1 h, 1 μM of CPP): seven | enhanced cellular uptake (relative fluorescence intensity) compared to REF (HeLa cells [1]; HeLa, 37 °C, 1 h, 0.1 μM of CPP): 14 times

VPMLK [VP4]
cell penetration compared with control polymer (in words) (HeLa cells [1]; HeLa, 1 h): do not penetrate cells better than the control polymer

GRKKRRQRRR [P-T12-Pir, HPMA copolymer bearing pirarubicin via GFLG and TAT via dodeca(ethylene glycol) spacer]
IC50 lower compared with P-Pir conjugate without any CPP (HeLa cells [3]; 24 h incubation): more than two | IC50 (concentration of the Pir reducing the cell viability to one half) (HeLa cells [3]; 24 h incubation, Alamar Blue, expressed as pirarubicin, mean ± SD, triplicate in three independent experiments): 18.3 ± 6.2 µg/mL | IC50 (HeLa cells [3]; 24 h incubation, read-out: concentration of CPP present on the conjugate at IC50 value): ~20.7 µM | cytotoxicity (IC50 as pirarubicin) after longer incubation time (HeLa cells [3]; 72 h incubation, Alamar Blue): 11.1 ± 1.6 µg/mL

COc1cccc2c1C(=O)c1c(O)c3c(c(O)c1C2=O)C[C@@](O)(C(=O)CO)C[C@@H]3O[C@H]1C[C@H](N)[C@H](O[C@@H]2CCCCO2)[C@H](C)O1 [Pir, Pirarubicin, reference compound]
IC50 (HeLa cells [3]; Homo sapiens, 24 h incubation, Alamar Blue, expressed as pirarubicin, mean ± SD, triplicate in three independent experiments, read-out: IC50 (concentration of the Pir reducing the cell viability to one half)): 1.03 ± 0.3 µg/mL

RYIRS [RY4]
cell penetration compared with control polymer (in words) (HeLa cells [1]; HeLa, 1 h): do not penetrate cells better than the control polymer

RRMKWKK [PEN4]
IC50 (HeLa cells [3]; [6]): 82.9 ± 4.8 µM | internalization efficiency compared with the control polymer (HeLa cells [1]): ~15 times | effect of tetra(ethylene glycol) spacer on penetration compared with spacer-free PEN0 (in words) (HeLa cells [1]; HeLa, 4 °C, 1 h): not long enough to improve the penetration | uptake compared with TAT4 (in words) (HeLa cells [1]; HeLa, 4 °C, 1 h, 1 and 10 μM of CPP): slightly outperformed TAT4 | concentration dependence of relative uptake (in words) (HeLa cells [1]; HeLa, 4 °C, 1 h, 25 and 50 μM of CPP): did not exhibit any more improvement | relative increase of fluorescence intensity compared to REF, versus TAT4 (in words) (HeLa cells [1]; HeLa, 37 °C, 1 h, all measured concentrations): lower than in the case of TAT4

— paper PMC7023232, “Polymer Cancerostatics Containing Cell-Penetrating Peptides: Internalization Efficacy Depends on Peptide Type and Spacer Length” (Pharmaceutics, 2020)
